Earlier results in US7985733B1, “Buffer-based method for preparing bivalirudin drug product” (The Medicines Company, priority 2010, dated 2011).

Tests used:
[1] = 25° C.
[2] = pH at which the molecule carries no net charge
[3] = statement of CN 101244043

Compound: Maleate
- pKa (pK1) [1]: 2.0
- pKa (pK2) [1]: 6.2

Compound: O=S(=O)(O)CCN1CCN(CCS(=O)(=O)O)CC1 [Piperazine-1,4-bis(2-ethanesulfonic acid)]
- pKa [1]: 6.8

Compound: CC[C@H](C)[C@H](NC(=O)[C@H](CCC(=O)O)NC(=O)[C@H](CCC(=O)O)NC(=O)[C@H](Cc1ccccc1)NC(=O)[C@H](CC(=O)O)NC(=O)CNC(=O)[C@H](CC(N)=O)NC(=O)CNC(=O)CNC(=O)CNC(=O)CNC(=O)[C@@H]1CCCN1C(=O)[C@H](CCCNC(=N)N)NC(=O)[C@@H]1CCCN1C(=O)[C@H](N)Cc1ccccc1)C(=O)N1CCC[C@H]1C(=O)N[C@@H](CCC(=O)O)C(=O)N[C@@H](CCC(=O)O)C(=O)N[C@@H](Cc1ccc(O)cc1)C(=O)N[C@@H](CC(C)C)C(=O)O [bivalirudin, D-Phenylalanyl-L-Prolyl-L-Arginyl-L-Prolyl-Glycyl-Glycyl-Glycyl-Glycyl-L-Asparagyl-Glycyl-L-Aspartyl-L-Phenylalanyl-L-Glutamyl-L-Glutamyl-L-Isoleucyl-L-Prolyl-L-Glutamyl-L-Glutamyl-L-Tyrosyl-L-Leucine]
- isoelectric point (pI) [2]: about 3.6
- solubility in water [3]: easily soluble in water
